Measurements from EP4470537A1, “COMPOUND FOR USE IN TREATING FIBRODYSPLASIA OSSIFICANS PROGRESSIVA (FOP)” (Queen's University At Kingston, priority 2023, dated 2024).

Tests used:
RAR = RAR transcriptional activation assay (RARE-luc MCF-7 cells); assay type: cell-based; settings: 0.1 nM to 10 µM, 24 hours of treatment
Description: This retinoid transcriptional activity assay measures the ability of a test compound to induce expression of a RA-sensitive reporter construct. This assay utilizes MCF-7 cells stably transduced with a gene construct comprising 4 tandem RA-response elements linked to a promoter driving transcriptional expression of the firefly luciferase encoding mRNA (RARE-luc). This construct serves as a sensitive reporter of retinoid-like activity.
RARE-luc transduced MCF-7 cells were maintained in a RPMI-1640 medium containing 10% FBS. Cells were grown in 96-well plates, and treated with the test compound diluted in DMSO in duplicate at 0.1 nM, 1 nM, 10 nM, 100 nM, 1 µM and 10 µM final concentrations. As a positive control for reporter activation, cells were also treated with RA diluted in DMSO at the same concentrations. DMSO treatment alone served as a negative control. After 24 hours of treatment, cells were harvested lysis buffer (Molecular Devices, San Jose, USA) and luciferase activity in cell lysates were read using a luminometer.

heterotopic ossification = assay: Surgical mouse model of heterotopic ossification (rhBMP2 collagen disk implant); assay type: in vivo
Description: Disks were impregnated with 1µg total of recombinant human BMP-2 (GenScript, Piscataway, NJ, USA, catalog #Z02913, lot #P50031712) on the day of surgery (5µl of 200ng/µL BMP-2, reconstituted in 20mM acetic acid solution). The rhBMP2-soaked collagen disk was surgically implanted into a small pocket made in the left gastrocnemius muscle of a 6-8 week-old male CD-1 mouse.
At the study endpoint (Day 14: 16-30 hours after final compound treatment) left hindlimbs were removed and submitted to micro-CT (micro-computed tomography) imaging.
CT images were acquired using a VECTor^4CT pre-clinical scanner (MILabs B.V., Utrecht, Netherlands) equipped with a cone beam X-ray CT system. Scans were carried out with an acceleration voltage of 50 kVp and an X-ray tube current of 430 µA in accurate focus mode to obtain 3600 projections over a 360° scan. […] CT images were consequently processed using MILabs reconstruction software implementing a voxel size of 20 µm and a Hann projection filter of 25 µm to generate 3-dimensional CT images. For quantification, CT images were converted to DICOM® files using PMOD 3.9 software (PMOD Technologies Ltd., Zurich, Switzerland) for rendering using RadiAnt DICOM Viewer 4.2 software (Medixant, Poznań, Poland). The region-of-interest for all hindlimbs, reconstructed from DICOM files, was defined by outlining sites of ectopic ossification. Analysis of total ectopic bone volume was conducted via automated processes using the AnalyzePro software with the Bone Microarchitecture Analysis (BMA) add-on (AnalyzeDirect, Overland Park, Kansas).

growth plates = assay: Long bone growth and growth plate toxicity in juvenile FVB mice; settings: mouse, in vivo
Description: For both palovarotene and compound 1 efficacy and toxicity were correlated to the pharmacokinetic parameters AUC (area under the curve), Cmax (maximum concentration detected following compound administration), and duration above EC50/IC50.This illustrated that efficacy was best predicted by duration above the EC50/IC50 (effective concentration for 50% response (in the case of palovarotene), or for 50% inhibition (in the case of compound 1)), whereas toxicity was best predicted by Cmax. […] For palovarotene, efficacy data from Example 7 and toxicity data from Example 8 above were compiled with mined data from the following publications: • Lindborg et al (2018). "Cartilage-derived retinoic acid-sensitive protein (CD-RAP): A stage-specific biomarker of heterotopic endochondral ossification (HEO) in fibrodysplasia ossificans progressiva (FOP)." Bone 109: 153-157. • Chakkalakal, S. A., et al. (2016). "Palovarotene Inhibits Heterotopic Ossification and Maintains Limb Mobility and Growth in Mice With the Human ACVR1(R206H) Fibrodysplasia Ossificans Progressiva (FOP) Mutation." J Bone Miner Res 31(9): 1666-1675. • Inubushi, T., et al. (2018). "Palovarotene Inhibits Osteochondroma Formation in a Mouse Model of Multiple Hereditary Exostoses." J Bone Miner Res 33(4): 658-666. • Lees-Shepard, J. B., et al. (2018). […]

ectopic bone formation = assay: Genetic model of FOP (pinch injury, Acvr1 cR206H/+;Pdgfra-Cre+ mice); assay type: in vivo, mouse; settings: for Mean ectopic bone volume D14 / percent change from vehicle (D14): day 14; for Mean ectopic bone volume D22 / percent change from vehicle (D22): day 22
Description: Acvr1^(cR206H/+) mice were obtained from the International Fibrodysplasia Ossificans Progressiva Association (IFOPA, North Kansas City, MO, USA). These animals harbour a Cre recombinase-inducible Acvr1 transgenic allele, which causes a switch from wild-type mouse ACVR1 protein expression to that of a chimeric mouse/human protein containing the R206H mutation seen in >95% of FOP patients. These animals were intercrossed with Pdgfra-Cre expressing mice (C57BL/6-Tg(PDGFRA-cre)1Clc/J mice, available through The Jackson Laboratory, Bar Harbor, ME, USA) which activates Cre recombination in fibro-adipogenic precursors, currently believed to be the cells of origin for FOP (Lees-Shepard, J.B., et al (2018) Nat Commun 9, 471.). Resulting study animals (ACVR1^(R206H/+);Pdgfra-Cre+) are susceptible to injury-induced ectopic bone formation. These animals were subjected to a bilateral gastrocnemius pinch procedure under anaesthesia, whereby a Halsted-mosquito hemostat (product#13008-12, Fine Science Tools Inc., North Vancouver, BC, Canada) is used to compress the gastrocnemius muscle, at its widest part, to approximately 2mm for 5s, and then released. This injury elicits robust ectopic bone formation within 10-14 days (for description of procedure see, Lyu, H., et al. (2021). Biomedicines 9(6).). Animals began treatment with various doses of compound 1 (0.5 mg/kg BID, 1 mg/kg BID, 2 mg/kg BID, 4 mg/kg BID, 7.5 mg/kg BID and 10 mg/kg BID or 2 mg/kg QD and 10 mg/kg QD) or palovarotene (1.76 mg/kg QD or 0.88 mg/kg QD) or corn oil vehicle on the day following the procedure for 21 days. Micro-CT imaging was performed on day 14 (under anaesthesia) and at study termination (day 22), as outlined above in Example 7. Sites of ectopic bone formation in the area of the injury were volumetrically quantified using Class stratification in Imalytics Preclinical software (version 3.0.2.3, Gremse-IT GmbH, Aachen, Germany) from DICOM renderings. Using this model, the utility of compound 1 in inhibiting bone formation in a genetic mouse model of FOP was illustrated (see Figure 11 and Table 3 below). […]

CC(C)(C)c1cccc(-c2cc3cc(/C=C/C(=O)O)ccc3[nH]2)c1 [compound 1, (E)-3-(2-(3-(tert-butyl)phenyl)-1H-indol-5-yl)acrylic acid]
luciferase activity (RAR): did not induce luciferase activity significantly | ectopic bone formation (heterotopic ossification; result in words, 2 to 18 mg/kg QD or BID, 14 days, micro-CT): dose-dependent decrease in ectopic bone formation from vehicle | disturbances to the growth of long bones and microarchitecture of the growth plates (growth plates): not observed | Mean ectopic bone volume D14 (ectopic bone formation; 0.5mg/kg BID): 5.31 ± 6.65 mm^3 | percent change from vehicle (D14) (ectopic bone formation; 0.5mg/kg BID): -51.9% | Mean ectopic bone volume D22 (ectopic bone formation; 0.5mg/kg BID): 4.01 ± 7.71 mm^3 | percent change from vehicle (D22) (ectopic bone formation; 0.5mg/kg BID): -63.4% | Mean ectopic bone volume D14 (ectopic bone formation; 1mg/kg BID): 4.88 ± 6.79 mm^3 | percent change from vehicle (D14) (ectopic bone formation; 1mg/kg BID): -55.8% | Mean ectopic bone volume D22 (ectopic bone formation; 1mg/kg BID): 5.50 ± 10.67 mm^3 | percent change from vehicle (D22) (ectopic bone formation; 1mg/kg BID): -49.8% | Mean ectopic bone volume D14 (ectopic bone formation; 2mg/kg BID): 4.62 ± 5.80 mm^3 | percent change from vehicle (D14) (ectopic bone formation; 2mg/kg BID): -58.1% | Mean ectopic bone volume D22 (ectopic bone formation; 2mg/kg BID): 5.08 ± 7.90 mm^3 | percent change from vehicle (D22) (ectopic bone formation; 2mg/kg BID): -53.6% | Mean ectopic bone volume D14 (ectopic bone formation; 2mg/kg QD): 3.61 ± 4.98 mm^3 | percent change from vehicle (D14) (ectopic bone formation; 2mg/kg QD): -67.3% | Mean ectopic bone volume D22 (ectopic bone formation; 2mg/kg QD): 1.77 ± 1.73 mm^3 | percent change from vehicle (D22) (ectopic bone formation; 2mg/kg QD): -83.8% | Mean ectopic bone volume D14 (ectopic bone formation; 4mg/kg BID): 1.54 ± 2.85 mm^3 | percent change from vehicle (D14) (ectopic bone formation; 4mg/kg BID): -86.1% | Mean ectopic bone volume D22 (ectopic bone formation; 4mg/kg BID): 2.65 ± 6.33 mm^3 | percent change from vehicle (D22) (ectopic bone formation; 4mg/kg BID): -75.8% | Mean ectopic bone volume D14 (ectopic bone formation; 7.5mg/kg BID): 0.26 ± 0.42 mm^3 | percent change from vehicle (D14) (ectopic bone formation; 7.5mg/kg BID): -97.6% | Mean ectopic bone volume D22 (ectopic bone formation; 7.5mg/kg BID): 0.06 ± 0.16 mm^3 | percent change from vehicle (D14) (ectopic bone formation; 10mg/kg BID): -88.4% | percent change from vehicle (D22) (ectopic bone formation; 10mg/kg BID): -87.2% | Mean ectopic bone volume D14 (ectopic bone formation; 10mg/kg QD): 1.56 ± 3.61 mm^3 | percent change from vehicle (D14) (ectopic bone formation; 10mg/kg QD): -85.9% | Mean ectopic bone volume D22 (ectopic bone formation; 10mg/kg QD): 2.13 ± 6.10 mm^3 | percent change from vehicle (D22) (ectopic bone formation; 10mg/kg QD): -80.6% | efficacy in inhibiting bone formation (ectopic bone formation; result in words, comparison with palovarotene): at least as efficacious as clinically relevant doses of palovarotene

CC1(C)CCC(C)(C)c2cc(Cn3cccn3)c(/C=C/c3ccc(C(=O)O)cc3)cc21 [palovarotene, reference compound]
percent change in HO volume from vehicle mean (heterotopic ossification; 0.88mg/kg, 13 days, Day 14): +2.5% | Mean ectopic bone volume D14 (ectopic bone formation; 0.88mg/kg QD): 2.42 ± 3.93 mm^3 | percent change from vehicle (D14) (ectopic bone formation; 0.88mg/kg QD): -78.0% | Mean ectopic bone volume D22 (ectopic bone formation; 0.88mg/kg QD): 0.75 ± 0.97 mm^3 | percent change from vehicle (D22) (ectopic bone formation; 0.88mg/kg QD): -93.2% | Mean ectopic bone volume D14 (ectopic bone formation; 1.76mg/kg QD): 1.54 ± 2.48 mm^3 | percent change from vehicle (D14) (ectopic bone formation; 1.76mg/kg QD): -86.1% | Mean ectopic bone volume D22 (ectopic bone formation; 1.76mg/kg QD): 0.58 ± 0.96 mm^3 | percent change from vehicle (D22) (ectopic bone formation; 1.76mg/kg QD): -94.7%
